US20220288143A1, “PHARMACEUTICAL COMPOSITION FOR TREATING CANCER, COMPRISING VACCINIA VIRUS AND GRANULOPOIESIS INHIBITOR AS ACTIVE INGREDIENTS” (priority 2019, published 2022)

How the values were obtained:
[1] = tested on: neutrophils; experiment: Neutrophil count (CBC), Renca-transplanted mice, lenalidomide or hydroxyurea (Exp. Ex. 17); type: in vivo, mouse; conditions: day 5, 30 mg/kg i.p. daily, compared with group administered saline
Method: Balb/c mice (female, 8-week-old) purchased from Orient Bio (Busan, Korea) were subjected to a one-week acclimatization period, and then allografted with Renca cancer cell line (Korea Cell Line Bank) at 5×10^6 cells. After another one-week acclimatization period, the mice were divided into 3 groups (n=3) and administered intraperitoneally with saline, hydroxyurea (30 mg/kg), and lenalidomide (30 mg/kg), respectively, daily from 1 day before the administration of the oncolytic virus to day 4 after the administration.
As a result of performing a complete blood count (CBC) by sacrificing the mice in each group on day 5 after administering the oncolytic virus, it was confirmed that the neutrophil count of the mice in the group administered with lenalidomide was reduced as compared with the group administered with saline, except for one outlier mouse.

[2] = tested on: neutrophils; type: in vivo, mouse; conditions: Renca mice; day 8; compared with negative control group (saline); hydroxyurea 30 mg/kg i.p.

Which results are given for NC(=O)NO [hydroxyurea]?
neutrophil count [1]: significantly lower; absolute neutrophil count (ANC) [2]: decreased

With Nc1cccc2c1CN(C1CCC(=O)NC1=O)C2=O (stereo not drawn) [lenalidomide] as the compound, how does the neutrophil count [1] read?
Its neutrophil count is “reduced”.
